This is an account of results in EP0539088B1, “Echinocandin b derivative” (MERCK & CO. INC., priority 1991, dated 1993).

Where a name gives a salt, the structure may show the parent alone.

One data set concerns Candida albicans MY 1028. As to the kind of experiment: Minimum fungicidal concentration (MFC), microbroth dilution assay in YNBD. In kind it is cell-based. Conditions: MY1028, 35°C 24 hours, then SDA 24 hours at 28°C. The source says: (§1) The compounds of the present invention are active against many fungi and as previously indicated particularly against Candida species. The antifungal properties may be illustrated with the minimum fungicidal concentration (MFC) determination against certain Candida organisms in a microbroth dilution assay carried out in a Yeast Nitrogen Base (Difco) medium with 1 percent dextrose (YNBD).
(§2) In carrying out the assay, Compound I was solubilized in 10 percent dimethyl sulfoxide (DMSO) and diluted to 2560 µg/ml. The compound was then diluted to 256 µg/ml in YNBD. 0.15 mL of the suspension was dispensed to the top row of a 96-well plate (each well containing 0.15 ml of YNBD) resulting in a drug concentration of 128 µg/ml. Two-fold dilutions were then made from the top row to obtain final drug concentrations ranging from 128 to 0.06 µg/ml. […]
(§3) 96-well microplates were inoculated-using a MIC-2000 (Dynatech) which delivers […] per well yielding a final inoculum per well of 1.5-7.5 x 10^3 cells. […] The minimum inhibitory concentrations (MICs) were recorded as the lowest concentrations of drug showing no visible growth.
(§4) After recording the MIC, the plates were shaken to resuspend the cells. […] The inoculated trays were incubated 24 hours at 28°C and then read for minimum fungicidal concentration (MFC). […]
Background: Broth dilution looks for growth in wells or tubes with falling amounts of substance.

The next data set relates to Candida albicans MY 1055. Described as above. The following applies: MY1055, 35°C 24 hours, then SDA 24 hours at 28°C. In kind it is cell-based.
From the text: as §1, §2, §3, §4

In data set [1] the test system is Candida albicans (MY 1055). As to the kind of experiment: In vivo kidney CFU reduction in mice infected with Candida albicans. Set-up: species or system female DBA/2 mice. Conditions: 0.4 mg/kg I.P. twice daily for four consecutive days; kidneys after seven days. On the procedure:
Growth from an overnight SDA culture of Candica albicans MY 1055 was suspended in sterile saline and the cell concentration determined by hemacytometer count and the cell suspension adjusted to 3.75 x 10^5 cells/ml. Then 0.2 milliliter of this suspension was administered I.V. in the tail vein of mice so that the final inoculum was 7.5 x 10^4 cells/mouse.
The assay then was carried out by administering aqueous solutions of Compound I at various concentrations intraperitoneally (I.P.), twice daily (b.i.d.) for four consecutive days to 18 to 20 gram female DBA/2 mice, which previously had been infected with Candida albicans (MY 1055) in the manner described above. Distilled water was administered I.P. to C. albicans challenged mice as controls. After seven days, the mice were sacrificed by carbon dioxide gas, paired kidneys were removed aseptically and placed in sterile polyethylene bags containing 5 milliters of sterile saline. The kidneys were homogenized in the bags, serially diluted in sterile saline and aliquots spread on the surface of SDA plates. The plates were incubated at 35°C for 48 hours and yeast colonies were enumerated for determination of colony forming units (CFU) per gram of kidneys.

For the next data set, the system named is red blood cells. Nature of the data set: Red blood cell lysis, minimum lytic concentration. It is filed as cell-based, human. The source says: A harmful and potentially fatal side reaction of a number of drugs including certain antibiotically active echinocandin compounds is red blood cell lysis. […] The blood cell lysis property may be seen in the determination carried out in the following manner.
The blood employed is a 4 percent suspension of freshly drawn heparinized blood prepared by adding 2 milliliters of blood to 50 milliliters of sterile 5 percent dextrose.
Compound I was solubilized in a small volume of dimethylsulfoxide (DMSO) that was then diluted with distilled water to a final concentration of 5 percent DMSO to obtain a drug suspension of 4.0 mg/ml. A 0.2 milliliter amount of the drug suspension was added to 1.4 milliliters of sterile 5 percent dextrose to obtain the test suspension. A diluent control was also prepared.
A 96-well microliter plate with a well volume of 0.35 ml was used for the assay. Columns 2-12 were filled with 150 µl of sterile 5 percent dextrose. Then, 300 µl of test suspensions were dispensed into the wells in column 1 and serially two-fold diluted in 5 percent dextrose to yield final test concentrations of from 400 to 0.20 µg/ml. […]

In the case of `CCC(C)CC(C)CCCCCCCCC(=O)NC1CC(O)C(OCCN)NC(=O)C2C(O)CCN2C(=O)C(C(O)CC(N)=O)NC(=O)C(C(O)C(O)c2ccc(O)cc2)NC(=O)C2CC(O)CN2C(=O)C(C(C)O)NC1=O` (centres unmarked) [Compound I, 1-[4-hydroxy-5-aminoethyloxy-N^2-(10,12-dimethyl-1-oxotetradecyl)-ornithine]-5-(3-hydroxyglutamine)-6-(3-hydroxyproline)-echinocandin B trifluoroacetate], the MFC against Candida albicans MY 1028 was found to be 0.25 µg/mL; in the data set on Candida albicans MY 1055, 0.125 µg/mL. The “reduction of recoverable Candida CFUs” value in data set [1] was “greater than 99%”. For the same molecule, the “red blood cell lysis” value with red blood cells (at concentrations far beyond what would be used for therapeutic purposes) is given as “no red blood cell lysis”. Besides, in the data set on red blood cells (lowest concentration producing complete or partial lysis, 2 hours at room temperature, tested 400 to 0.20 µg/ml), the “Minimum lytic concentration (MLC)” value worked out at 400 µg/mL.

A word on the MFC: it is the smallest concentration meeting the test's criterion for killing the fungus. Low values mean more potent killing, high ones less potent killing.
